{"source": "ChEMBL document CHEMBL1201862", "about": "“PubChem BioAssay data set” (2004)", "key": {"Insulin-degrading enzyme": {"molecular_target": "T1, Insulin-degrading enzyme (Homo sapiens, UniProt P14735)", "T1 sequence (P14735 whole entry)": "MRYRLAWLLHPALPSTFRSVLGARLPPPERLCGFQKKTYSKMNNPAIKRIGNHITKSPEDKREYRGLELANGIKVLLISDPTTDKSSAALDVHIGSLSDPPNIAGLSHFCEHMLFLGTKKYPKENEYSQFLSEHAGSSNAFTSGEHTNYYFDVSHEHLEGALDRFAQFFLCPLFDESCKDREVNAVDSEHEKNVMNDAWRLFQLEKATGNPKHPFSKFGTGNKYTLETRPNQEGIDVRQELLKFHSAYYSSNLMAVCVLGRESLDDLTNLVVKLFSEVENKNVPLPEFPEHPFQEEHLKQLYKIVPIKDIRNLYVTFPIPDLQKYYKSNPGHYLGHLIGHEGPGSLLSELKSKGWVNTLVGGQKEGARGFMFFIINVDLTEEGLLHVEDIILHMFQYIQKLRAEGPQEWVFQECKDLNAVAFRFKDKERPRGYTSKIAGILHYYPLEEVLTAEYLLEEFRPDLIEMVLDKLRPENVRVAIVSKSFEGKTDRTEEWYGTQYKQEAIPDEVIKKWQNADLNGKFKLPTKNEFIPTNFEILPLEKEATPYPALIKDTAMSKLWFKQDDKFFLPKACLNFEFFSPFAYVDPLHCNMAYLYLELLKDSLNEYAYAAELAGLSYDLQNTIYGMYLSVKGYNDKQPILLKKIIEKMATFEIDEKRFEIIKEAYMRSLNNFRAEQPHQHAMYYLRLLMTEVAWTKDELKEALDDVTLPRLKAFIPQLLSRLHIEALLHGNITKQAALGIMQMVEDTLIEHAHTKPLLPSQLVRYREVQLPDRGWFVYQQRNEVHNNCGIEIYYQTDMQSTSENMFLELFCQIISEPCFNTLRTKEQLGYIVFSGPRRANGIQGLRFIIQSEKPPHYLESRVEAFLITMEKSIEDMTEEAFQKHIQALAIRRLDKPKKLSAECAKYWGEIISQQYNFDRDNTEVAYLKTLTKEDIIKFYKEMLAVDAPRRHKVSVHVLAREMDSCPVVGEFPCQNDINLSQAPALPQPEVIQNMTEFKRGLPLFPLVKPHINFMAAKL", "test": "Dose Response: Fluorescence polarization-based cell-based high throughput dose response assay for inhibitors of insulin-degrading enzyme (IDE). [Related pubchem assays: 434962 (Primary screen (IDE inhibitors in singlicate)), 449730 (Counterscreen (Cytotoxicity in triplicate)), 435028 (Confirmation (IDE inhibitors in triplicate)), 434984 (Summary …", "type": "functional"}, "[1]": {"test": "Counterscreen for IDE inhibitors: Luminescence-based cell-based high throughput dose response assay to identify compounds that are cytotoxic to HEK cells. [Related pubchem assays: 434962 (Primary screen (IDE inhibitors in singlicate)), 449730 (Counterscreen (Cytotoxicity in triplicate)), 435028 (Confirmation (IDE inhibitors in triplicate)) …", "type": "functional", "details": "HEK293"}, "Streptococcus [2]": {"system": "Streptococcus", "test": "Luminescence Microorganism-Based Dose Response Follow up to Identify Compounds Cytotoxic to Streptococcus. [Related pubchem assays: 1677 (Project Summary), 1915, 1914, 1902 (Retest at Dose), 1900 (Counter Screen), 1662 (Primary HTS)]", "type": "functional, organism-based"}, "[3]": {"system": "Streptococcus sp. 'group A'", "test": "growth inhibition of control SK(-) GAS strain, dose response, counter-screen for streptokinase expression inhibitor project, luminescence, kanamycin, BacTiterGlo, confirmation (AID 1900)", "type": "functional, organism-based"}, "Streptokinase A": {"molecular_target": "T2, Streptokinase A (Streptococcus pyogenes serotype M1, UniProt P10520)", "T2 sequence (P10520 whole entry)": "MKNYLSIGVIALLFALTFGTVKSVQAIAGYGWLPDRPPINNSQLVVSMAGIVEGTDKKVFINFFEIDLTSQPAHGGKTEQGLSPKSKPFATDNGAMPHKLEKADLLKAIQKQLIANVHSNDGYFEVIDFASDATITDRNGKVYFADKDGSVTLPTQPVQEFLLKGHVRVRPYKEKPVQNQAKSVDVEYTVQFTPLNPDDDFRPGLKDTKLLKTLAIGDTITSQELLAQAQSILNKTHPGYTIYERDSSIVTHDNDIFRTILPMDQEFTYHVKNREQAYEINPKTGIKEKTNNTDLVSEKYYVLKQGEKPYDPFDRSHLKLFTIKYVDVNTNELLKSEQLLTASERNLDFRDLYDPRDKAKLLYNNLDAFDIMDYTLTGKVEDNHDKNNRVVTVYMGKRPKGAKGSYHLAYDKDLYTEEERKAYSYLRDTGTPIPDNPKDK", "test": "S. pyogenes streptokinase expression inhibitors, potency, dose response, plasminogen activation absorbance, OD405 (AID 1914);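 also: secreted streptokinase activity via plasminogen activation per viability signal from cell pellet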", "type": "functional, Streptococcus pyogenes M1 GAS"}, "Streptococcus [4]": {"system": "Streptococcus", "test": "Group A Streptococcus viability loss, dose response, counter-screen for streptokinase expression inhibitor project, luminescence, BacTiterGlo (AID 1915)", "type": "functional, organism-based"}, "Staphylococcus aureus": {"system": "Staphylococcus aureus", "test": "Inhibitors of Bacterial Quorum Sensing Structure Activity Relationship (SAR) Analysis: Dose Response Assay. [Related pubchem assays: 700, 527 ]", "type": "functional, organism-based"}}, "note": "Activity calls are given as the source filed them. Rule as the data show it, for most assays here: actives have a measured EC50 and inactives only a lower limit."}
{"compound": "COc1cc(/C=C2\\SC(=N)N(c3ccc(F)cc3)C2=O)ccc1O", "values": [{"measurement": "IC50", "setting": "Insulin-degrading enzyme", "value": "29.3 µM (not active)"}, {"measurement": "IC50", "setting": "[1]", "value": "39.5 µM (not active)"}]}
{"compound": "FC(F)(F)c1nc(N2CCN(c3ccccc3)CC2)nc2c1CCCCC2", "values": [{"measurement": "EC50", "setting": "Streptococcus [2]", "value": "> 500 µM (not active)"}, {"measurement": "EC50", "setting": "[3]", "value": "2.83 µM (active)"}, {"measurement": "EC50", "setting": "Streptokinase A", "value": "5.5 µM (active)"}, {"measurement": "EC50", "setting": "Streptococcus [4]", "value": "> 150 µM (not active)"}]}
{"compound": "COc1ccc(S(=O)(=O)c2nnn3c2[nH]c(=O)c2ccccc23)cc1", "values": [{"measurement": "IC50", "setting": "Staphylococcus aureus", "value": "0.563 µM (active)"}]}
